Literature values, collected in patent US20240082136A1, “TOPICAL COMPOSITION” (LILIGER LTD., priority 2021, published 2024).

Legend:
[1] = system: stratum corneum / dry skin; details: topical treatment
[2] = system: cutaneous vasodilation; details: in vivo

Row | Compound | Clinical symptoms of dry skin [1] | Skin moisture [1] | Urea in the stratum corneum [1] | Cutaneous vasodilation [2]
1 | Cl.N=C(N)NCCC[C@H](N)C(=O)O [arginine hydrochloride] | improvement | increase | significantly increase | 
2 | botulinum toxin A |  |  |  | eliminates
